Results: patent publication US20110152302A1, “Novel dicyclanil-based shelf stable aqueous suspension and non-aqueous solution pour-on and spray-on formulations useful for the prevention and treatment of insect infestation in animals” (priority 2009, published 2011)
One block for each molecule: values may come before it.

How the values were obtained:
[1] = Stability of dicyclanil 5% PEG200 solutions, refrigerated and accelerated temperature, 5 days; assay type: physicochemical
Description: Materials and Methods: A formulation was prepared in the following manner (concentration summarized in TABLE 16): • a) Loaded 90% PEG 200 • b) Added Dicyclanil with mixing • c) Made to volume with PEG 200 • d) Mixed until dissolved
Several test formulations were made to determine their stability under refrigerated (2-8° C.) and accelerated temperature (70° C.) conditions for 5 days. DIC 021, 022 and 025 were prepared according to the method described above.

[2] = more active than cyromazine; cited from earlier work
[3] = Dicyclanil crystal formation in water with 5% surfactant; assay type: physicochemical
Description: A commercially manufactured batch of Dicyclanil Polymorph A was sourced. This crystalline form was confirmed by X-Ray Diffraction (FIG. 1). Studies were then conducted to determine the ability of various surfactants to prevent the growth of dicyclanil crystals suspended in water. Nonyl phenol and octyl phenol ethoxylates were tested in an aqueous medium according to TABLE 2.
Given the inability of the surfactants of TABLE 2 to prevent crystal growth, a further range of surfactants was tested.

[4] = Maximum solubility of dicyclanil in non-aqueous solvents; assay type: physicochemical
Description: (§1) Materials and Methods: To determine the range of potential non-aqueous solvents to be used in producing dicyclanil solution formulations, a range of solubility studies were performed. The method employed was to add 500 mg quantities of dicyclanil into 10 mL each of solvent. If the drug dissolved it was placed into the refrigerator overnight. Samples were then taken out of the refrigerator and checked for the emergence of precipitate after the sample had been returned to room temperature. Thereafter, dicyclanil was added to each solution, 100 mg each time, until no more dicyclanil would dissolve in the solvent (i.e. dicyclanil was added until the solution reached its saturation concentration for dicyclanil).
Results: An initial range of solvents was obtained (TABLE 12).

[5] = Solubility of dicyclanil in solvents at 25° C.; assay type: physicochemical
Description: as §1
As a result, a further range of solvents was tested. The solvents used for these solubility studies are defined in TABLE 13.

[6] = Solubility of dicyclanil in solvents at 70° C.; assay type: physicochemical
[7] = water with 5% surfactant, Most = >90%

Structure (SMILES): N#Cc1c(N)nc(NC2CC2)nc1N [Dicyclanil, 4,6-diamino-2-(cyclopropylamino)-5-pyrimidinecarbonitrile]
solubility in PEG (in words) ([1]; PEG): good solubility
concentration at which dicyclanil remains stable without additional excipients ([1]; PEG-based formulations): at least 5%
activity relative to cyromazine [2]: 10 times
Dicyclanil Crystal Formation, 3 days ([3]; water, No surfactant added): Large crystals up to 200μ
Dicyclanil Crystal Formation, Initial ([3]; water, No surfactant added): Long thin, up to 200μ
solubility in words ([4]; many of the commonly used veterinary topical solvents (TABLE 12)): quite insoluble
Maximum solubility (% w/v) ([4]; solvent 2-Pyrollidone): 1% w/v
Maximum solubility (% w/v) ([4]; solvent Benzyl Alcohol): <1% w/v
Maximum solubility (% w/v) ([4]; solvent DGBE): 2% w/v
Maximum solubility (% w/v) ([4]; solvent Glycofurol): 6% w/v
Maximum solubility (% w/v) ([4]; solvent IPM): <1% w/v
Maximum solubility (% w/v) ([4]; solvent MIGLYOL 810): <1% w/v
Maximum solubility (% w/v) ([4]; solvent MIGLYOL 840): <1% w/v
Maximum solubility (% w/v) ([4]; solvent NMP): 4% w/v
Maximum solubility (% w/v) ([4]; solvent Propylene Glycol): 1% w/v
solubility of dicyclanil, soluble at 5% ([5]; 25° C., BA): less
solubility of dicyclanil, soluble at 5% ([5]; 25° C., DGBE): less
solubility of dicyclanil, soluble at 5% ([5]; 25° C., DGMEE): less
solubility of dicyclanil, soluble at 5% ([5]; 25° C., DMA): ✓
solubility of dicyclanil, soluble at 6% ([5]; 25° C., DMA): ✓
solubility of dicyclanil, soluble at 7% ([5]; 25° C., DMA): ✓
solubility of dicyclanil, soluble at 8% ([5]; 25° C., DMA): ✓
solubility of dicyclanil, soluble at 9% ([5]; 25° C., DMA): ✓
solubility of dicyclanil, soluble at 10% ([5]; 25° C., DMA, 10%): ✓
solubility of dicyclanil, soluble at 11% ([5]; 25° C., DMA, 11%): ✓
solubility of dicyclanil, soluble at 12% ([5]; 25° C., DMA, 12%): ✓
solubility of dicyclanil, soluble at 13% ([5]; 25° C., DMA, 13%): ✓
solubility of dicyclanil, soluble at 14% ([5]; 25° C., DMA, 14%): ✓
solubility of dicyclanil, soluble at 15% ([5]; 25° C., DMA, 15%): ✓
solubility of dicyclanil, soluble at 16% ([5]; 25° C., DMA, 16%): ✓
solubility of dicyclanil, soluble at 17% ([5]; 25° C., DMA, 17%): ✓
solubility of dicyclanil, soluble at 18% ([5]; 25° C., DMA, 18%): ✓
solubility of dicyclanil, soluble at 5% ([5]; 25° C., DMSO): ✓
solubility of dicyclanil, soluble at 6% ([5]; 25° C., DMSO): ✓
solubility of dicyclanil, soluble at 7% ([5]; 25° C., DMSO): ✓
solubility of dicyclanil, soluble at 8% ([5]; 25° C., DMSO): ✓
solubility of dicyclanil, soluble at 9% ([5]; 25° C., DMSO): ✓
solubility of dicyclanil, soluble at 5% ([5]; 25° C., EL): less
solubility of dicyclanil, soluble at 5% ([5]; 25° C., GF): less
solubility of dicyclanil, soluble at 5% ([5]; 25° C., IPA): less
solubility of dicyclanil, soluble at 5% ([5]; 25° C., PEG200): ✓
solubility of dicyclanil, soluble at 6% ([5]; 25° C., PEG200): ✓
solubility of dicyclanil, soluble at 7% ([5]; 25° C., PEG200): ✓
solubility of dicyclanil, soluble at 5% ([5]; 25° C., PEG400): less
solubility of dicyclanil, soluble at 5% ([5]; 25° C., PG): less
solubility in words ([5]; Isopropyl Alcohol, Benzyl Alcohol, Ethyl Lactate, Propylene Glycol, Diethylene Glycol monobutyl Ether): quite insoluble
solubility of dicyclanil in PEG200 ([5]; at 25° C., PEG200): 7%
solubility of dicyclanil in PEG400 ([5]; at 25° C., PEG400): less than 5%
solubility of dicyclanil, soluble at 5% ([6]; BA, 5%): less
solubility of dicyclanil, soluble at 5% ([6]; DGBE, 5%): less
solubility of dicyclanil, soluble at 5% ([6]; DGMEE, 5%): ✓
solubility of dicyclanil, soluble at 5% ([6]; DMA, 5%): ✓
solubility of dicyclanil, soluble at 10% ([6]; DMA): ✓
solubility of dicyclanil, soluble at 15% ([6]; DMA): ✓
solubility of dicyclanil, soluble at 20% ([6]; DMA): ✓
solubility of dicyclanil, soluble at 25% ([6]; DMA): ✓
solubility of dicyclanil, soluble at 5% ([6]; DMSO, 5%): ✓
solubility of dicyclanil, soluble at 10% ([6]; DMSO): ✓
solubility of dicyclanil, soluble at 15% ([6]; DMSO): ✓
solubility of dicyclanil, soluble at 20% ([6]; DMSO): ✓
solubility of dicyclanil, soluble at 25% ([6]; DMSO): ✓
solubility of dicyclanil, soluble at 5% ([6]; EL, 5%): ✓
solubility of dicyclanil, soluble at 5% ([6]; GF, 5%): ✓
solubility of dicyclanil, soluble at 10% ([6]; GF): ✓
solubility of dicyclanil, soluble at 5% ([6]; IPA, 5%): less
solubility of dicyclanil, soluble at 5% ([6]; PEG400, 5%): ✓
solubility of dicyclanil, soluble at 5% ([6]; PG, 5%): less

Dicyclanil Crystal Formation, 3 days [3, 7]: Large crystals up to 200μ
Dicyclanil Crystal Formation, Initial [3, 7]: Up to 100μ
Structure (SMILES): CCCCC(CC)COC(=O)CC(C(=O)OCC(CC)CCCC)S(=O)(=O)[O-].[Na+] (centres unmarked) [Docusate sodium]

Dicyclanil Crystal Formation, 3 days [3, 7]: Large crystals up to 200μ
Dicyclanil Crystal Formation, Initial [3, 7]: Mostly up to 200μ
Structure (SMILES): CCCCCCCCCCCCOS(=O)(=O)[O-].[Na+] [Sodium lauryl sulphate]
